# Tests used:
# [1] = target: T1, Recombinant human TDO comprising amino acids 19-407 (Homo sapiens, UniProt P48775); test: TDO2 enzymatic assay (NFK quantified by LCMS); type: biochemical; conditions: 15 nM enzyme, 200 μM L-tryptophan, pH7, 30 minutes pre-incubation at RT; mean values when measured multiple times; read-out: hTDO activity (IC50 in nM)
# T1 construct: Recombinant human TDO comprising amino acids 19-407 with a N-terminal hexahistidine tag; hexahistidine (His6) (N); made in house; host or cells: E. coli
# T1 sequence (P48775 19-406 limits assumed): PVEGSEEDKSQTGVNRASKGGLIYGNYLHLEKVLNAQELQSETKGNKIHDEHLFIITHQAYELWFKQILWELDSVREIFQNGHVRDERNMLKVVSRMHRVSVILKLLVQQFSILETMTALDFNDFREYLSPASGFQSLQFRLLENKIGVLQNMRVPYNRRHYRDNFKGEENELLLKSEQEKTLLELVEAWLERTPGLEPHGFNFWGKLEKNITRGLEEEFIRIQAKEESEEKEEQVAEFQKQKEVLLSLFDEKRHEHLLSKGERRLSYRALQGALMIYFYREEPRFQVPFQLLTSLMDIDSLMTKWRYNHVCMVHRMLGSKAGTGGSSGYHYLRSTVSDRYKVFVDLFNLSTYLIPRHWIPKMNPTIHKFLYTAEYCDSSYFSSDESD
# Outline: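 NFK formed over 30 min at RT from 200 μM L-tryptophan was measured by LCMS, normalized to d5-tryptophan, after compound (0.5 nM–10 μM, duplicates, 0.6% DMSO) was preincubated 30 min with 15 nM recombinant His-tagged TDO 19-407 in phosphate buffer pH 7. IC50 from four-parameter logistic fit; repeats averaged.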
# [2] = target: T2, Recombinant full-length human IDO1 (Homo sapiens, UniProt P14902); test: IDO1 enzymatic assay (NFK quantified by LCMS); type: biochemical; conditions: 2 nM enzyme, 5 μM L-tryptophan, pH6.5, 30 minutes pre-incubation at RT; mean values when measured multiple times; read-out: hIDO activity (IC50 in nM)
# T2 construct: Recombinant full-length human IDO1 with a N-terminal hexahistidine tag; hexahistidine (His6) (N); made in house; host or cells: E. coli
# T2 sequence (P14902 whole entry): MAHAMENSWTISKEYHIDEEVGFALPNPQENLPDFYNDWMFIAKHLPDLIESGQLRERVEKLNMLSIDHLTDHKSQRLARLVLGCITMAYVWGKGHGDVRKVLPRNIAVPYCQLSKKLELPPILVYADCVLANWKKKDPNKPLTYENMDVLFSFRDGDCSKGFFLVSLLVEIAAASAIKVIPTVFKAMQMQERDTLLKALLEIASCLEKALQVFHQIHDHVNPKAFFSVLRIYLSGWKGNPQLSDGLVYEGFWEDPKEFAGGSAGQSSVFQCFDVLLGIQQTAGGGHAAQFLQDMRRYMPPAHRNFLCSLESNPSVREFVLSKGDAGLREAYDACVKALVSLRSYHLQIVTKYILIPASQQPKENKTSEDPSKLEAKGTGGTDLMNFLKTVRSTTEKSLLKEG
# Outline: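 IC50 comes from four-parameter logistic fits of duplicate data, with NFK quantified by LCMS and normalized to L-Trp-(indole-d5). Compound (0.5 nM–10 μM) was preincubated 30 min at RT with 2 nM E. coli-expressed IDO1 before a 30 min reaction with 5 μM tryptophan in pH 6.5 buffer containing ascorbate and methylene blue.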
Structure (SMILES),IC50 [1],IC50 [2]
"O[C@@H](c1cn(-c2ccc3[nH]ccc3c2)nn1)c1c(C2CC2)sc2cncn12 [Example 16a, (R)-(2-Cyclopropyl-imidazo[5,1-b]thiazol-3-yl)-[1-(1H-indol-5-yl)-1H-[1,2,3]triazol-4-yl]-methanol]",4570 nM,4.55 nM
"N#Cc1cccc(-n2cc([C@H](O)c3c(C4CC4)sc4cncn34)nn2)c1 [Example 18a, 3-{4-[(R)-(2-Cyclopropyl-imidazo[5,1-b]thiazol-3-yl)-hydroxy-methyl]-[1,2,3]triazol-1-yl}-benzonitrile]",> 10200 nM,13.5 nM
"O[C@@H](c1cn(-c2ccc(OCC3CC3)cc2)nn1)c1c(C2CC2)sc2cncn12 [Example 35a, (R)-(2-Cyclopropyl-imidazo[5,1-b]thiazol-3-yl)-[1-(4-cyclopropylmethoxy-phenyl)-1H-[1,2,3]triazol-4-yl]-methanol]",> 10200 nM,9.7 nM
"CCc1sc2cncn2c1[C@@H](O)c1cn(-c2ccc(NC(=O)OC)cc2)nn1 [Example 49a, (4-{4-[(R)-(2-Ethyl-imidazo[5,1-b]thiazol-3-yl)-hydroxy-methyl]-[1,2,3]triazol-1-yl}-phenyl)-carbamic acid methyl ester]",1040 nM,2.7 nM
"O[C@@H](c1cn(-c2ccc(OCC3CCOCC3)cc2)nn1)c1c(C2CC2)sc2cncn12 [Example 87a, (R)-(2-Cyclopropyl-imidazo[5,1-b]thiazol-3-yl)-{1-[4-(tetrahydro-pyran-4-ylmethoxy)-phenyl]-1H-[1,2,3]triazol-4-yl}-methanol]",> 10200 nM,4.55 nM
"O[C@@H](c1cnn(-c2ccccc2)c1)c1c(C2CC2)sc2cncn12 [Example 100a, (S)-(2-Cyclopropyl-imidazo[5,1-b]thiazol-3-yl)-(1-phenyl-1H-pyrazol-4-yl)-methanol]",2450 nM,17.5 nM
"Cc1c([C@H](O)c2c(C3CC3)sc3cncn23)nnn1-c1ccccc1 [Example 101a, (R)-(2-Cyclopropyl-imidazo[5,1-b]thiazol-3-yl)-(5-methyl-1-phenyl-1H-[1,2,3]triazol-4-yl)-methanol]",4410 nM,6.31 nM
"OCCCOc1ccc(-n2cc([C@H](O)c3c(C4CC4)sc4cncn34)nn2)cc1 [Example 137a, 3-(4-{4-[(R)-(2-Cyclopropyl-imidazo[5,1-b]thiazol-3-yl)-hydroxy-methyl]-[1,2,3]triazol-1-yl}-phenoxy)-propan-1-ol]",> 10200 nM,4.09 nM
"CC(C)(O)COc1ccc(-n2cc([C@H](O)c3c(C4CC4)sc4cncn34)nn2)cc1 [Example 139a, 1-(4-{4-[(R)-(2-Cyclopropyl-imidazo[5,1-b]thiazol-3-yl)-hydroxy-methyl]-[1,2,3]triazol-1-yl}-phenoxy)-2-methyl-propan-2-ol]",> 10200 nM,5.44 nM
"CC(C)(O)CCOc1ccc(-n2cc([C@H](O)c3c(C4CC4)sc4cncn34)nn2)cc1 [Example 140a, 4-(4-{4-[(R)-(2-Cyclopropyl-imidazo[5,1-b]thiazol-3-yl)-hydroxy-methyl]-[1,2,3]triazol-1-yl}-phenoxy)-2-methyl-butan-2-ol]",> 10200 nM,7.31 nM
"O[C@@H](c1cn(-c2ccc(OCCC3(O)CC3)cc2)nn1)c1c(C2CC2)sc2cncn12 [Example 142a, 1-[2-(4-{4-[(R)-(2-Cyclopropyl-imidazo[5,1-b]thiazol-3-yl)-hydroxy-methyl]-[1,2,3]triazol-1-yl}-phenoxy)-ethyl]-cyclopropanol]",> 10200 nM,9.51 nM
"OC(c1cn(-c2ccc(OCC3CCCCO3)cc2)nn1)c1c(C2CC2)sc2cncn12 (stereo not drawn) [Example 143, (2-Cyclopropyl-imidazo[5,1-b]thiazol-3-yl)-{1-[4-(tetrahydro-pyran-2-ylmethoxy)-phenyl]-1H-[1,2,3]triazol-4-yl}-methanol]",> 10200 nM,18.1 nM
"O[C@@H](c1cn(-c2ccc(OCC3(F)COC3)cc2)nn1)c1c(C2CC2)sc2cncn12 [Example 145a, (R)-(2-Cyclopropyl-imidazo[5,1-b]thiazol-3-yl)-{1-[4-(3-fluoro-oxetan-3-ylmethoxy)-phenyl]-1H-[1,2,3]triazol-4-yl}-methanol]",> 10200 nM,8.77 nM
"CN1CCCC(COc2ccc(-n3cc(C(O)c4c(C5CC5)sc5cncn45)nn3)cc2)C1 (stereo not drawn) [Example 146, (2-Cyclopropyl-imidazo[5,1-b]thiazol-3-yl)-{1-[4-(1-methyl-piperidin-3-ylmethoxy)-phenyl]-1H-[1,2,3]triazol-4-yl}-methanol]",> 10200 nM,44.4 nM
"Oc1ccc(-n2cc([C@H](O)c3c(C4CC4)sc4cncn34)nn2)cc1Cl [Example 148a, 2-Chloro-4-{4-[(R)-(2-cyclopropyl-imidazo[5,1-b]thiazol-3-yl)-hydroxy-methyl]-[1,2,3]triazol-1-yl}-phenol]",4440 nM,5.25 nM
"CC(C)C(=O)Nc1ccc(-n2cc([C@H](O)c3c(C4CC4)sc4cncn34)nn2)cc1 [Example 192a, N-(4-{4-[(R)-(2-Cyclopropyl-imidazo[5,1-b]thiazol-3-yl)-hydroxy-methyl]-[1,2,3]triazol-1-yl}-phenyl)-isobutyramide]",> 10200 nM,3.71 nM
"CCc1sc2cncn2c1C(O)c1cn(-c2ccc3c(c2)C(C)NS3(=O)=O)nn1 (stereo not drawn) [Example 227, (2-Ethyl-imidazo[5,1-b]thiazol-3-yl)-[1-(3-methyl-1,1-dioxo-2,3-dihydro-1H-1I6-benzo[d]isothiazol-5-yl)-1H-[1,2,3]triazol-4-yl]-methanol]",> 10200 nM,77.8 nM
"CC1NS(=O)(=O)c2ccc(-n3cc(C(O)c4c(C5CC5)sc5cncn45)nn3)cc21 (stereo not drawn) [Example 228, (2-Cyclopropyl-imidazo[5,1-b]thiazol-3-yl)-[1-(3-methyl-1,1-dioxo-2,3-dihydro-1H-1I6-benzo[d]isothiazol-5-yl)-1H-[1,2,3]triazol-4-yl]-methanol]",> 10200 nM,76.1 nM
"CC(C)(O)CCOc1ccc(-n2cc([C@H](O)c3c(-c4ccccc4)sc4cncn34)nn2)cc1Cl [Example 268a, 4-(2-Chloro-4-{4-[(R)-hydroxy-(2-phenyl-imidazo[5,1-b]thiazol-3-yl)-methyl]-[1,2,3]triazol-1-yl}-phenoxy)-2-methyl-butan-2-ol]",10000 nM,123 nM
"OCCCOc1ccc(-n2cc([C@H](O)c3c(C4CC4)sc4cncn34)nn2)cc1Cl [Example 275, 3-(2-Chloro-4-{4-[(R)-(2-cyclopropyl-imidazo[5,1-b]thiazol-3-yl)-hydroxy-methyl]-[1,2,3]triazol-1-yl}-phenoxy)-propan-1-ol]",> 10200 nM,7.03 nM
"O[C@@H](c1cn(-c2ccc(OCC3CCOCC3)c(Cl)c2)nn1)c1c(C2CC2)sc2cncn12 [Example 276, (R)-{1-[3-Chloro-4-(tetrahydro-pyran-4-ylmethoxy)-phenyl]-1H-[1,2,3]triazol-4-yl}-(2-cyclopropyl-imidazo[5,1-b]thiazol-3-yl)-methanol]",> 10200 nM,4.63 nM
"CC(C)(O)CCOc1ccc(-n2cc([C@H](O)c3c(C4CC4)sc4cncn34)nn2)cc1Cl [Example 277, 4-(2-Chloro-4-{4-[(R)-(2-cyclopropyl-imidazo[5,1-b]thiazol-3-yl)-hydroxy-methyl]-[1,2,3]triazol-1-yl}-phenoxy)-2-methyl-butan-2-ol]",> 10200 nM,7.12 nM
"O[C@@H](c1cn(-c2ccc(OCC3(F)COC3)c(Cl)c2)nn1)c1c(C2CC2)sc2cncn12 [Example 282, (R)-{1-[3-Chloro-4-(3-fluoro-oxetan-3-ylmethoxy)-phenyl]-1H-[1,2,3]triazol-4-yl}-(2-cyclopropyl-imidazo[5,1-b]thiazol-3-yl)-methanol]",> 10200 nM,5.58 nM
"CC(C)(O)COc1ccc(-n2cc([C@H](O)c3c(C4CC4)sc4cncn34)nn2)cc1Cl [Example 283, 1-(2-Chloro-4-{4-[(R)-(2-cyclopropyl-imidazo[5,1-b]thiazol-3-yl)-hydroxy-methyl]-[1,2,3]triazol-1-yl}-phenoxy)-2-methyl-propan-2-ol]",> 10200 nM,7.31 nM

# — US20200405696A1, “INHIBITORS OF INDOLEAMINE 2,3-DIOXYGENASE AND/OR TRYPTOPHAN 2,3-DIOXYGENASE” (IDORSIA PHARMACEUTICALS LTD, priority 2018, published 2020)
